Source: publication PMC11664589, “A Versatile “Synthesis Tag” (SynTag) for the Chemical Synthesis of Aggregating Peptides and Proteins” (Journal of the American Chemical Society, 2024)
Starred links: 1 amine or outer side, 2 acyl side, 3 side chain; linkers in the order of their positions; H or OH if unused. Non-standard residues stand in square brackets, D forms with d. Residues, ends and D or L forms follow the SMILES beside them. No end group written: not given here. X1 = C[C@H](N[*:1])C(=O)n1c(=O)n(C)c2ccc(C(=O)[*:2])cc21

Columns and labels:
[1] = UHPLC elution as indicator of hydrophilicity; assay type: physicochemical; conditions: standard UHPLC conditions, 214 nm; with versus without SynTag
[2] = once synthesized; cited from earlier work
Text: Amyloid-β is a biologically relevant peptide that is investigated for its role in Alzheimer’s disease (Figure 5D). The peptide is notoriously difficult to synthesize because it severely aggregates at the very beginning of the synthesis (i.e., residues 27–42).

Molecule	hydrophilicity by UHPLC elution / peak shape (in words) [1]	solubility (in words) [2]
KGAIIGLMVGGVVIA-NH2 [Aβ42[27–42]]	elutes later than Aβ42[27–42]-MeNbz-Arg6	–
CC[C@H](C)[C@H](NC(=O)[C@H](C)NC(=O)CNC(=O)[C@@H](N)CCCCN)C(=O)N[C@H](C(=O)NCC(=O)N[C@@H](CC(C)C)C(=O)N[C@@H](CCSC)C(=O)N[C@H](C(=O)NCC(=O)NCC(=O)N[C@H](C(=O)N[C@H](C(=O)N[C@H](C(=O)N[C@@H](C)C(=O)n1c(=O)n(C)c2ccc(C(=O)N[C@@H](CCCNC(=N)N)C(=O)N[C@@H](CCCNC(=N)N)C(=O)N[C@@H](CCCNC(=N)N)C(=O)N[C@@H](CCCNC(=N)N)C(=O)N[C@@H](CCCNC(=N)N)C(=O)N[C@@H](CCCNC(=N)N)C(N)=O)cc21)[C@@H](C)CC)C(C)C)C(C)C)C(C)C)[C@@H](C)CC [Aβ42[27–42]-SynTag] (H-KGAIIGLMVGGVVI[X1]RRRRRR-NH2)	increased hydrophilicity	–
Amyloid-β: biologically relevant peptide investigated for its role in Alzheimer’s disease	–	barely soluble
